{"source": "BindingDB's records for doi:10.1021/jm9605849", "about": "(Monash University, 1997)", "target": "5-hydroxytryptamine receptor 1D (Bos taurus)", "assay": "Affinity pKi for 5-hydroxytryptamine 1D receptor was measured in calf caudate homogenate", "data": [{"smiles": "CCOC(=O)c1[nH]c2ccc(CCN3C(=O)CNC3=O)cc2c1CCN(C)C", "values": [{"measurement": "Ki", "result": 10, "unit": "µM"}]}]}
